IC50 data for three compounds are collected here from patent publication US20180344702A1, “METHODS FOR TREATING PATIENTS WITH HEMATOLOGIC MALIGNANCIES” (Aptose Biosciences, Inc., priority 2017, published 2018).

Assay [1] relates to Ba/F3 cells transfected with FLT3 ITD-F691L. Nature of the assay: Cytotoxicity in isogenic transfected Ba/F3 cells (Table 4). It is filed as cell-based, Murin. The following applies: Mus musculus, BaF3; n = 3; read-out: IC50 in Transfected Ba/F3 cells, FLT3 ITD-F691L.
Assay [2] deals with Ba/F3 cells transfected with FLT3 ITD. The assay is described as above. It is filed as cell-based, Murin. Particulars: Mus musculus, BaF3; n = 3; read-out: IC50 in Transfected Ba/F3 cells, FLT3 ITD.
In assay [3] the test system is Ba/F3 cells transfected with FLT3 D835Y. The assay is described as above. It is filed as cell-based, Murin. The following applies: Mus musculus, BaF3; n = 3; read-out: IC50 in Transfected Ba/F3 cells, FLT3 D835Y.
The test system of assay [4] is Ba/F3 cells transfected with FLT3 ITD-D835Y. The description is as above. The following applies: Mus musculus, BaF3; n = 3; read-out: IC50 in Transfected Ba/F3 cells, FLT3 ITD-D835Y. It is filed as cell-based, Murin.
Assay [5] deals with Ba/F3 cells transfected with FLT3 WT. The description is as above. It is filed as cell-based, Murin. The following applies: Mus musculus, BaF3; n = 3; read-out: IC50 in Transfected Ba/F3 cells, FLT3 WT.
The target in a further assay is BTK C481S (Homo sapiens, UniProt Q06187, C481S). Kind of assay: Comparative potency against BTK (Table 8). It is filed as biochemical. The following applies: x printed without key.
Chain of BTK C481S (Q06187 whole entry C481S): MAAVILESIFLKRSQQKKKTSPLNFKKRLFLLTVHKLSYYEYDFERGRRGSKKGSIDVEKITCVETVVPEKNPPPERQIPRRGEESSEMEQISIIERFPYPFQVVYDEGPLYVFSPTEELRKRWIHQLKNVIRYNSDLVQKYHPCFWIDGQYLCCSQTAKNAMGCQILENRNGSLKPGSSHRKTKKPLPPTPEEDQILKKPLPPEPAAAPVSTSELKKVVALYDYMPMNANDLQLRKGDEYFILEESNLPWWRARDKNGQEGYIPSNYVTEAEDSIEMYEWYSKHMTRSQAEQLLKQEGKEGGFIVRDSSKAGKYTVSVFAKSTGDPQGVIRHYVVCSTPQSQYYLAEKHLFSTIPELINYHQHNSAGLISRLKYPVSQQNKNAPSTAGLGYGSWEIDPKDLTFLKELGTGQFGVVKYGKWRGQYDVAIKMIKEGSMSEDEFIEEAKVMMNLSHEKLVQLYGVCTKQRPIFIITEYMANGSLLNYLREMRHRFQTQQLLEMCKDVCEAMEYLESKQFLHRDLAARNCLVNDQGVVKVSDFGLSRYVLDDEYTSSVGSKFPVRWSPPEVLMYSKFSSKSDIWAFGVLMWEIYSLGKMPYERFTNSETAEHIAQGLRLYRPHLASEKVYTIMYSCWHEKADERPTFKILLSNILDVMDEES
Another assay deals with ITK (Homo sapiens, UniProt Q08881). Nature of the assay: Key off-targets (Table 8). It is filed as biochemical.
Chain of ITK (Q08881 whole entry): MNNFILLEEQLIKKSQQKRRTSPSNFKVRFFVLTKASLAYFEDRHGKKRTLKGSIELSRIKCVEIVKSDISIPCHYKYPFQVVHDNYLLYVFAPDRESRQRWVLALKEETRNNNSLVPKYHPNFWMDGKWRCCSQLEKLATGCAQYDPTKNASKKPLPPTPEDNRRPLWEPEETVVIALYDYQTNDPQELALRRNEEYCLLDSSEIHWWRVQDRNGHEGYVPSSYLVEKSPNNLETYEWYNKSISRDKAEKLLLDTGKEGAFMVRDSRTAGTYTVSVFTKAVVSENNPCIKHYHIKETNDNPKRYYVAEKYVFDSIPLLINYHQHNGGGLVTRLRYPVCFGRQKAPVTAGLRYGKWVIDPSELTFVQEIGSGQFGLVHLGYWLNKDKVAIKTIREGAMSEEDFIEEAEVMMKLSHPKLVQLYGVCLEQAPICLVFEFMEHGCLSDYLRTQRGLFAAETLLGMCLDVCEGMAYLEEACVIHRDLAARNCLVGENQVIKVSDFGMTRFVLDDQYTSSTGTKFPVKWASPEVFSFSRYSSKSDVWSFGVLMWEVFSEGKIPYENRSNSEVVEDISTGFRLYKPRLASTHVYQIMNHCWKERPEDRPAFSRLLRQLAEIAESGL
The next assay concerns the target BTK WT (Homo sapiens, UniProt Q06187). Kind of assay: Comparative potency against BTK (Table 8). It is filed as biochemical. Particulars: Table 8, wild-type BTK.
In the next assay the test system is Ba/F3-D835G (FLT3-D835G). Nature of the assay: Antiproliferative activity (Table 6). Particulars: Ba/F3-D835G; 48 h (Gilteritinib); read-out: IC50. It is filed as cell-based, Murin.
Assay [6] has as its system Ba/F3-ITD + D835H (FLT3-ITD + D835H). Kind of assay: Antiproliferative activity (Table 6). It is filed as cell-based, Murin. Particulars: Ba/F3-ITD + D835H; 48 h (Gilteritinib); read-out: IC50.
A further assay has as its system Ba/F3-D835Y (FLT3-D835Y). Kind of assay: Antiproliferative activity (Table 6). It is filed as cell-based, Murin. Particulars: Ba/F3-D835Y; 48 h (Gilteritinib); read-out: IC50.
For assay [7], the system named is Ba/F3-ITD + D835Y (FLT3-ITD + D835Y). Kind of assay: Antiproliferative activity (Table 6). It is filed as cell-based, Murin. The following applies: Ba/F3-ITD + D835Y; 48 h (Gilteritinib); read-out: IC50.
For another assay, the system named is Ba/F3-ITD (FLT3-ITD). Nature of the assay: Antiproliferative activity (Table 6). It is filed as cell-based, Murin. The following applies: Ba/F3-ITD; 48 h (Gilteritinib); read-out: IC50.
The test system of assay [8] is MOLM14 (FLT3-ITD, t(9:11)). Nature of the assay: Antiproliferative activity (Table 6). It is filed as cell-based. The following applies: Homo sapiens, MOLM-14; MOLM14; 48 h (Gilteritinib); read-out: IC50.
The next assay has as its system THP-1 (FLT3-WT, t(9:11)). Kind of assay: Antiproliferative activity (Table 6). It is filed as cell-based. The following applies: Homo sapiens; THP-1; 48 h (Gilteritinib); read-out: IC50.
The subject of assay [9] is MOLM13 (FLT3-ITD, t(9:11)). Nature of the assay: Antiproliferative activity (Table 6). It is filed as cell-based. The following applies: Homo sapiens, MOLM-13; MOLM13; 48 h (Gilteritinib); read-out: IC50.
Assay [10] deals with Ba/F3-ITD + 691 (ITD + F691L). Kind of assay: Antiproliferative activity (Table 6). It is filed as cell-based, Murin. Particulars: Ba/F3-ITD + 691 (ITD + F691L); 48 h (Gilteritinib); read-out: IC50.
For assay [11], the system named is MV4-11 (FLT3-ITD, t(4:11)). Nature of the assay: Antiproliferative activity (Table 6). It is filed as cell-based. The following applies: Homo sapiens; MV4-11; 48 h (Gilteritinib); read-out: IC50.
A further assay concerns Kasumi-1 (FLT3-WT). Kind of assay: Antiproliferative activity (Table 6). Particulars: Homo sapiens; Kasumi-1; 48 h (Gilteritinib); read-out: IC50. It is filed as cell-based.
Another assay has as its system Ba/F3-FLT3 (FLT3-WT). Kind of assay: Antiproliferative activity (Table 6). It is filed as cell-based, Murin. The following applies: Ba/F3-FLT3, FLT3-WT; 48 h (Gilteritinib); read-out: IC50.
Assay [12] has as its system Ba/F3-ITD + 842 (ITD + Y842C). Nature of the assay: Antiproliferative activity (Table 6). It is filed as cell-based, Murin. The following applies: Ba/F3-ITD + 842 (ITD + Y842C); 48 h (Gilteritinib); read-out: IC50.

Chain of BTK WT (Q06187 whole entry): as the sequence (Q06187 whole entry C481S) above, with S481C counted along it

Regarding `CC1(COc2ccc3c(c2)ncn3-c2ccc3cccc(N4CCC(N)CC4)c3n2)COC1` [Crenolanib], the IC50 was 258 nM in assay [1]; 35 nM in assay [2]; 889 nM in assay [3]; 31.7 nM in assay [4]; 2620 nM in assay [5].

For `NC(=O)[C@H]1CCN(c2ncnc(N)c2F)C[C@@H]1N1CCC[C@@H](Nc2cc(Cl)cc(C(F)(F)F)c2)C1=O` [SNS-062, reference compound], the results for the IC50 against BTK C481S, at ITK and against BTK WT were 4.5 nM, 49 nM and 0.4 nM, respectively.

In the case of `CCc1nc(C(N)=O)c(Nc2ccc(N3CCC(N4CCN(C)CC4)CC3)c(OC)c2)nc1NC1CCOCC1` [Gilteritinib, reference compound], the IC50 in the assay on Ba/F3-D835G (FLT3-D835G) turned out to be 28.1 nM; in assay [6] it was 10.4 nM; in the assay on Ba/F3-D835Y (FLT3-D835Y), 373 nM; in assay [7], 10.6 nM; in the assay on Ba/F3-ITD (FLT3-ITD) it was 36.2 nM; in [1] it was 98.4 nM. For the same compound, the IC50 in assay [8] is 58.8 nM; in the assay on THP-1 (FLT3-WT, t(9:11)) it was 2300 nM; in [9] it was 35.8 nM; in assay [2] it was 26.5 nM; in assay [3], 472 nM; in assay [4], 6.8 nM. The IC50 was determined as 119 nM in assay [10]; 176 nM in assay [11]; 2230 nM with Kasumi-1 (FLT3-WT); 79.5 nM in the assay with Ba/F3-FLT3 (FLT3-WT); 44.7 nM in assay [12]; 500 nM in assay [5].
